Measured values published in patent publication US11865098B1, “Methods and compositions for treating excessive sleepiness” (Axsome Malta Ltd., priority 2017, dated 2024).

Test system: patients with narcolepsy type 1 or type 2
Experiment: MWT, 12-week phase 3 study in narcolepsy
Assay type: in vivo, human
Protocol: The MWT is an objective test used to measure how alert a subject is during the day. The test consists of four sleep trials with two hours in between the trials. The first trial is performed 1.5-3 hours after the subject's normal wake-up time. Sensors are placed on the head, face, and chin to detect when the subject is asleep and awake during the test. The subject sits quietly in bed with his or her back and head supported by a pillow and is asked to sit still and look straight ahead while trying to stay awake as long as possible. Each trial lasts 40 minutes or until the subject is asleep for 90 seconds. Between trials, the subject stays out of bed and occupies himself or herself to remain awake. Falling asleep in an average of less than eight minutes is considered abnormal. About 40-60% of subjects with normal sleep stay awake for the entire 40 minutes of all four trials.
The study was a 12-week, double-blind, randomized, placebo-controlled, parallel-group study. Patients were randomized (1:1:1:1) to receive placebo or APC 75, 150, or 300 mg; randomization was stratified by the presence or absence of cataplexy.
Key inclusion criteria included adults 18-75 years old, inclusive, with a diagnosis of narcolepsy type 1 or type 2 according to ICSD-3 (American Academy of Sleep Medicine. The International Classification of Sleep Disorders—Third Edition (ICSD-3). Darien, IL: American Academy of Sleep Medicine; 2014) or DSM-5 (American Psychiatric Association. Diagnostic and Statistical Manual of Mental Disorders Fifth Edition (DSM-5). Arlington, VA: American Psychiatric Association; 2013) criteria, baseline mean sleep latency <25 minutes on the first 4 trials of a 5-trial, 40-minute Maintenance of Wakefulness Test (MWT) and baseline Epworth Sleepiness Scale (ESS) (Johns, Sleep 14(6):540 (1991)) score ≥10, usual nightly total sleep time ≥6 hours, and body mass index between 18 and 45 kg/m^2.
Co-primary endpoints were change from baseline to week 12 in MWT mean sleep latency and ESS score. The key secondary endpoint was the percentage of patients who reported improvement on the Patient Global Impression of Change (PGI-C) (Guy, ECDEU assessment manual for psychopharmacology, revised. US Department of Health, Education, and Welfare publication (ADM 76-338). Rockville, MD: National Institute of Mental Health; 1976) at week 12. Other secondary and exploratory endpoints included changes on function and quality-of-life and changes in the number of cataplexy attacks per week. Safety evaluation included adverse events, laboratory tests, and vital signs.
Efficacy analyses were based on the modified intent-to-treat population (mITT), defined as all patients who were randomized, received at least 1 dose of study drug, and had baseline and at least 1 post-baseline evaluation of both MWT and ESS. MWT and ESS were analyzed using a mixed-effect repeated measures (MMRM) model. PGI-C was analyzed using a chi-square test. A fixed hierarchical testing procedure was used to correct for multiplicity, starting with the highest dose of APC for the co-primary endpoints and the key secondary endpoint; testing proceeded with each subsequent lower doses.

[1] = Combined JZP-110, Week 12, mITT

## NC(=O)OC[C@H](N)Cc1ccccc1 [JZP-110, (R)-2-amino-3-phenylpropyl carbamate]
75 mg, Week 1, mITT
  MWT mean sleep latency increase from baseline >=5 minutes, % of subjects: (34.5) %
  MWT mean sleep latency increase from baseline >=5 minutes, n subjects: 10
  MWT mean sleep latency increase from baseline >=10 minutes, % of subjects: (24.1) %
  MWT mean sleep latency increase from baseline >=10 minutes, n subjects: 7
  MWT mean sleep latency increase from baseline >=15 minutes, % of subjects: (17.2) %
  MWT mean sleep latency increase from baseline >=15 minutes, n subjects: 5
  MWT mean sleep latency increase from baseline >=20 minutes, % of subjects: (10.3) %
  MWT mean sleep latency increase from baseline >=20 minutes, n subjects: 3
  MWT mean sleep latency increase from baseline >=25 minutes, % of subjects: (3.4) %
  MWT mean sleep latency increase from baseline >=25 minutes, n subjects: 1
  MWT mean sleep latency increase from baseline >=30 minutes, n subjects: 0
75 mg, Week 4, mITT
  MWT mean sleep latency increase from baseline >=5 minutes, % of subjects: (42.0) %
  MWT mean sleep latency increase from baseline >=5 minutes, n subjects: 21
  MWT mean sleep latency increase from baseline >=10 minutes, % of subjects: (24.0) %
  MWT mean sleep latency increase from baseline >=10 minutes, n subjects: 12
  MWT mean sleep latency increase from baseline >=15 minutes, % of subjects: (12.0) %
  MWT mean sleep latency increase from baseline >=15 minutes, n subjects: 6
  MWT mean sleep latency increase from baseline >=20 minutes, % of subjects: (6.0) %
  MWT mean sleep latency increase from baseline >=20 minutes, n subjects: 3
  MWT mean sleep latency increase from baseline >=25 minutes, n subjects: 0
  MWT mean sleep latency increase from baseline >=30 minutes, n subjects: 0
75 mg, Week 12, mITT
  MWT mean sleep latency increase from baseline >=5 minutes, % of subjects: (41.3) %
  MWT mean sleep latency increase from baseline >=5 minutes, n subjects: 19
  MWT mean sleep latency increase from baseline >=10 minutes, % of subjects: (19.6) %
  MWT mean sleep latency increase from baseline >=10 minutes, n subjects: 9
  MWT mean sleep latency increase from baseline >=15 minutes, % of subjects: (15.2) %
  MWT mean sleep latency increase from baseline >=15 minutes, n subjects: 7
  MWT mean sleep latency increase from baseline >=20 minutes, % of subjects: (8.7) %
  MWT mean sleep latency increase from baseline >=20 minutes, n subjects: 4
  MWT mean sleep latency increase from baseline >=25 minutes, % of subjects: (2.2) %
  MWT mean sleep latency increase from baseline >=25 minutes, n subjects: 1
  MWT mean sleep latency increase from baseline >=30 minutes, n subjects: 0
150 mg, Week 1, mITT
  MWT mean sleep latency increase from baseline >=5 minutes, % of subjects: (68.2) %
  MWT mean sleep latency increase from baseline >=5 minutes, n subjects: 15
  MWT mean sleep latency increase from baseline >=10 minutes, % of subjects: (50.0) %
  MWT mean sleep latency increase from baseline >=10 minutes, n subjects: 11
  MWT mean sleep latency increase from baseline >=15 minutes, % of subjects: (22.7) %
  MWT mean sleep latency increase from baseline >=15 minutes, n subjects: 5
  MWT mean sleep latency increase from baseline >=20 minutes, % of subjects: (9.1) %
  MWT mean sleep latency increase from baseline >=20 minutes, n subjects: 2
  MWT mean sleep latency increase from baseline >=25 minutes, n subjects: 0
  MWT mean sleep latency increase from baseline >=30 minutes, n subjects: 0
150 mg, Week 4, mITT
  MWT mean sleep latency increase from baseline >=5 minutes, % of subjects: (61.2) %
  MWT mean sleep latency increase from baseline >=5 minutes, n subjects: 30
  MWT mean sleep latency increase from baseline >=10 minutes, % of subjects: (42.9) %
  MWT mean sleep latency increase from baseline >=10 minutes, n subjects: 21
  MWT mean sleep latency increase from baseline >=15 minutes, % of subjects: (30.6) %
  MWT mean sleep latency increase from baseline >=15 minutes, n subjects: 15
  MWT mean sleep latency increase from baseline >=20 minutes, % of subjects: (16.3) %
  MWT mean sleep latency increase from baseline >=20 minutes, n subjects: 8
  MWT mean sleep latency increase from baseline >=25 minutes, % of subjects: (10.2) %
  MWT mean sleep latency increase from baseline >=25 minutes, n subjects: 5
  MWT mean sleep latency increase from baseline >=30 minutes, n subjects: 0
150 mg, Week 12, mITT
  MWT mean sleep latency increase from baseline >=5 minutes, % of subjects: (58.0) %
  MWT mean sleep latency increase from baseline >=5 minutes, n subjects: 29
  MWT mean sleep latency increase from baseline >=10 minutes, % of subjects: (48.0) %
  MWT mean sleep latency increase from baseline >=10 minutes, n subjects: 24
  MWT mean sleep latency increase from baseline >=15 minutes, % of subjects: (36.0) %
  MWT mean sleep latency increase from baseline >=15 minutes, n subjects: 18
  MWT mean sleep latency increase from baseline >=20 minutes, % of subjects: (18.0) %
  MWT mean sleep latency increase from baseline >=20 minutes, n subjects: 9
  MWT mean sleep latency increase from baseline >=25 minutes, % of subjects: (8.0) %
  MWT mean sleep latency increase from baseline >=25 minutes, n subjects: 4
  MWT mean sleep latency increase from baseline >=30 minutes, % of subjects: (2.0) %
  MWT mean sleep latency increase from baseline >=30 minutes, n subjects: 1
300 mg, Week 1, mITT
  MWT mean sleep latency increase from baseline >=5 minutes, % of subjects: (64.0) %
  MWT mean sleep latency increase from baseline >=5 minutes, n subjects: 16
  MWT mean sleep latency increase from baseline >=10 minutes, % of subjects: (56.0) %
  MWT mean sleep latency increase from baseline >=10 minutes, n subjects: 14
  MWT mean sleep latency increase from baseline >=15 minutes, % of subjects: (44.0) %
  MWT mean sleep latency increase from baseline >=15 minutes, n subjects: 11
  MWT mean sleep latency increase from baseline >=20 minutes, % of subjects: (32.0) %
  MWT mean sleep latency increase from baseline >=20 minutes, n subjects: 8
  MWT mean sleep latency increase from baseline >=25 minutes, % of subjects: (24.0) %
  MWT mean sleep latency increase from baseline >=25 minutes, n subjects: 6
  MWT mean sleep latency increase from baseline >=30 minutes, % of subjects: (20.0) %
  MWT mean sleep latency increase from baseline >=30 minutes, n subjects: 5
300 mg, Week 4, mITT
  MWT mean sleep latency increase from baseline >=5 minutes, % of subjects: (69.2) %
  MWT mean sleep latency increase from baseline >=5 minutes, n subjects: 36
  MWT mean sleep latency increase from baseline >=10 minutes, % of subjects: (53.8) %
  MWT mean sleep latency increase from baseline >=10 minutes, n subjects: 28
  MWT mean sleep latency increase from baseline >=15 minutes, % of subjects: (36.5) %
  MWT mean sleep latency increase from baseline >=15 minutes, n subjects: 19
  MWT mean sleep latency increase from baseline >=20 minutes, % of subjects: (25.0) %
  MWT mean sleep latency increase from baseline >=20 minutes, n subjects: 13
  MWT mean sleep latency increase from baseline >=25 minutes, % of subjects: (17.3) %
  MWT mean sleep latency increase from baseline >=25 minutes, n subjects: 9
  MWT mean sleep latency increase from baseline >=30 minutes, % of subjects: (13.5) %
  MWT mean sleep latency increase from baseline >=30 minutes, n subjects: 7
300 mg, Week 12, mITT
  MWT mean sleep latency increase from baseline >=5 minutes, % of subjects: (60.0) %
  MWT mean sleep latency increase from baseline >=5 minutes, n subjects: 24
  MWT mean sleep latency increase from baseline >=10 minutes, % of subjects: (50.0) %
  MWT mean sleep latency increase from baseline >=10 minutes, n subjects: 20
  MWT mean sleep latency increase from baseline >=15 minutes, % of subjects: (37.5) %
  MWT mean sleep latency increase from baseline >=15 minutes, n subjects: 15
  MWT mean sleep latency increase from baseline >=20 minutes, % of subjects: (27.5) %
  MWT mean sleep latency increase from baseline >=20 minutes, n subjects: 11
  MWT mean sleep latency increase from baseline >=25 minutes, % of subjects: (15.0) %
  MWT mean sleep latency increase from baseline >=25 minutes, n subjects: 6
  MWT mean sleep latency increase from baseline >=30 minutes, % of subjects: (7.5) %
  MWT mean sleep latency increase from baseline >=30 minutes, n subjects: 3
150 and 300 mg, week 12, mITT
  MWT mean sleep latency relative to placebo: significantly increased MWT mean sleep latency relative to placebo
Combined JZP-110, Week 1, mITT
  MWT mean sleep latency increase from baseline >=5 minutes, % of subjects: (53.9) %
  MWT mean sleep latency increase from baseline >=5 minutes, n subjects: 41
  MWT mean sleep latency increase from baseline >=10 minutes, % of subjects: (42.1) %
  MWT mean sleep latency increase from baseline >=10 minutes, n subjects: 32
  MWT mean sleep latency increase from baseline >=15 minutes, % of subjects: (27.6) %
  MWT mean sleep latency increase from baseline >=15 minutes, n subjects: 21
  MWT mean sleep latency increase from baseline >=20 minutes, % of subjects: (17.1) %
  MWT mean sleep latency increase from baseline >=20 minutes, n subjects: 13
  MWT mean sleep latency increase from baseline >=25 minutes, % of subjects: (9.2) %
  MWT mean sleep latency increase from baseline >=25 minutes, n subjects: 7
  MWT mean sleep latency increase from baseline >=30 minutes, % of subjects: (6.6) %
  MWT mean sleep latency increase from baseline >=30 minutes, n subjects: 5
Combined JZP-110, Week 4, mITT
  MWT mean sleep latency increase from baseline >=5 minutes, % of subjects: (57.6) %
  MWT mean sleep latency increase from baseline >=5 minutes, n subjects: 87
  MWT mean sleep latency increase from baseline >=10 minutes, % of subjects: (40.4) %
  MWT mean sleep latency increase from baseline >=10 minutes, n subjects: 61
  MWT mean sleep latency increase from baseline >=15 minutes, % of subjects: (26.5) %
  MWT mean sleep latency increase from baseline >=15 minutes, n subjects: 40
  MWT mean sleep latency increase from baseline >=20 minutes, % of subjects: (15.9) %
  MWT mean sleep latency increase from baseline >=20 minutes, n subjects: 24
  MWT mean sleep latency increase from baseline >=25 minutes, % of subjects: (9.3) %
  MWT mean sleep latency increase from baseline >=25 minutes, n subjects: 14
  MWT mean sleep latency increase from baseline >=30 minutes, % of subjects: (4.6) %
  MWT mean sleep latency increase from baseline >=30 minutes, n subjects: 7
[1]
  MWT mean sleep latency increase from baseline >=5 minutes, % of subjects: (52.9) %
  MWT mean sleep latency increase from baseline >=5 minutes, n subjects: 72
  MWT mean sleep latency increase from baseline >=10 minutes, % of subjects: (39.0) %
  MWT mean sleep latency increase from baseline >=10 minutes, n subjects: 53
  MWT mean sleep latency increase from baseline >=15 minutes, % of subjects: (29.4) %
  MWT mean sleep latency increase from baseline >=15 minutes, n subjects: 40
  MWT mean sleep latency increase from baseline >=20 minutes, % of subjects: (17.6) %
  MWT mean sleep latency increase from baseline >=20 minutes, n subjects: 24
  MWT mean sleep latency increase from baseline >=25 minutes, % of subjects: (8.1) %
  MWT mean sleep latency increase from baseline >=25 minutes, n subjects: 11
  MWT mean sleep latency increase from baseline >=30 minutes, % of subjects: (2.9) %
  MWT mean sleep latency increase from baseline >=30 minutes, n subjects: 4
All doses, as early as week 1
  MWT mean sleep latency, effect at week 1: Statistically significant effects
Over the 12 weeks of the study
  Tolerance to the wake-promoting effects: no apparent tolerance to the wake-promoting effects
